For this assay, the target named is cruzipain (Trypanosoma cruzi, UniProt P25779). Briefly: biochemical. The conditions noted are these: 50 pM cruzipain, pH 5.5, 15 minutes preincubation, 2 μM Z-Phe-Arg-AMC substrate. The method, then: The assay solutions were mixed and incubated for 15 minutes at room temperature prior to the addition of 2 μM of Z-Phe-Arg-AMC substrate. […] Percent of inhibition were calculated by fitting experimental values to standard mathematical model for dose response curve.
Chain of cruzipain (P25779 123-467): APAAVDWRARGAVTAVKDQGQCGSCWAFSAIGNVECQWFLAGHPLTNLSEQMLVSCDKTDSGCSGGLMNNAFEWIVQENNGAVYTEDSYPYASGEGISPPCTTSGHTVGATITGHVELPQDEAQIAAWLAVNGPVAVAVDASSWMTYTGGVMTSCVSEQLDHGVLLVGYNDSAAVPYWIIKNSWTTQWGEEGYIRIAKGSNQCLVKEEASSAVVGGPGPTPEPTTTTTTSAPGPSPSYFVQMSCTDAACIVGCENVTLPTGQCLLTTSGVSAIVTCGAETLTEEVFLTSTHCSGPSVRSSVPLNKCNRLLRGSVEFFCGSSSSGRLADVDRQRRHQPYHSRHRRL
The compound `CC(C)[C@H](N[C@@H](c1ccc(-c2ccc([C@@H](O)C(F)F)cc2)cc1)C(F)(F)F)C(=O)N[C@H](C#N)Cc1c(F)cc(Br)cc1F` [Example 71, (S)-N-[(S)-(4-Bromo-2,6-difluoro-benzyl)-cyano-methyl]-2-{(S)-1-[4′-((R)-2,2-difluoro-1-hydroxy-ethyl)-biphenyl-4-yl]-2,2,2-trifluoro-ethylamino}-3-methyl-butyramide] showed an IC50 of 2.1 nM.

For `CC(C)(F)C[C@H](N[C@@H](c1ccc(-c2ccc(C3(c4ncon4)CC3)cc2)cc1)C(F)(F)F)C(=O)N[C@H](C#N)Cc1ccccc1` [Example 29, (S)-4-Fluoro-4-methyl-2-{(S)-2,2,2-trifluoro-1-[4′-(1-[1,2,4]oxadiazol-3-yl-cyclopropyl)-biphenyl-4-yl]-ethylamino}-pentanoic acid ((S)-1-cyano-2-phenyl-ethyl)-amide], the IC50 is 20 nM.

`CS(=O)(=O)c1ccc(-c2ccc([C@H](N[C@@H](CC(Cl)Cl)C(=O)N[C@H](C#N)Cc3ccc(C#N)cc3F)C(F)(F)F)cc2)cc1` [Example 1, (S)-4,4-Dichloro-N-[(S)-cyano-(4-cyano-2-fluoro-benzyl)-methyl]-2-[(S)-2,2,2-trifluoro-1-(4′-methanesulfonyl-biphenyl-4-yl)-ethylamino]-butyramide]: the IC50 is 0.14 nM.

In turn, `CC(C)(F)C[C@H](N[C@@H](c1ccc(-c2ccc([C@@H](O)C(F)F)cc2)cc1)C(F)(F)F)C(=O)N[C@H](C#N)Cc1ccc(S(C)(=O)=O)cc1` [Example 20, (S)-2-{(S)-1-[4′-((R)-2,2-Difluoro-1-hydroxy-ethyl)-biphenyl-4-yl]-2,2,2-trifluoro-ethylamino}-4-fluoro-4-methyl-pentanoic acid [(S)-1-cyano-2-(4-methanesulfonyl-phenyl)-ethyl]-amide] showed an IC50 of 8.4 nM.

Values taken from patent publication US8642799B2, “Cysteine protease inhibitors for the treatment of parasitic diseases” (Merck Canada Inc., priority 2007, dated 2014).
